Where “and” joins values, the source holds several entries; their conditions need not be identical. Equal values may be shown once.
Legend:
Coturnix japonica = conditions: acute; oral; mortality
Rattus norvegicus = conditions: for LD50: acute, mortality
Mus musculus = conditions: acute; oral; mortality
Anas platyrhynchos = conditions: short-term; oral; feed
Canidae = conditions: reproduction developmental; duration: 1 years; Dog Other

SMILES	LD50 (Coturnix japonica) [mg/kg]	LD50 (Rattus norvegicus; oral) [mg/kg]	NOEL (Colinus virginianus; short-term, oral, diet)	LD50 (Mus musculus) [mg/kg]	LD50 (Rattus norvegicus; F) [mg/kg]	LD50 (Rattus norvegicus; M) [mg/kg]	LD50 (Rattus norvegicus)	LC50 (Colinus virginianus; acute, oral, diet, mortality) [mg/kg-day]	LD50 (Colinus virginianus; acute, oral, mortality) [mg/kg]	NOEL (Anas platyrhynchos)	NOEL (Colinus virginianus; reproduction developmental)	NOEL (Canidae) [mg/kg-day]	NOEL (Rattus norvegicus; chronic) [mg/kg-day]
[Cu+].[Cu+].[O-2] [Cuprous oxide]	1180	261	31.9 mg/kg-day										
[Cl-].[Cu+2].[Cu+2].[OH-].[OH-].[OH-] [Dicopper chloride trihydroxide]				171	548	693	1080 mg/kg and 807 mg/kg	333	511				
O.O.[Cu] [Copper hydroxide (Cu(OH)2)]	556		124 mg/kg-day and 135 mg/kg-day		679	736	439 mg/kg and 281 mg/kg		223	216 mg/kg-day and 191 mg/kg-day	5.05 mg/kg-day and 5.12 mg/kg-day		
O=C([O-])[C@H](O)[C@@H](O)[C@H](O)[C@H](O)CO.O=C([O-])[C@H](O)[C@@H](O)[C@H](O)[C@H](O)CO.[Cu+2] [Copper gluconate]												15	27

— EPA's ToxValDB 9.5 (doi:10.2903/j.efsa.2013.3235)
